{
  "source": "patent US20220161013A1",
  "about": "“IMPROVED DELIVERY OF DRUG THERAPY TO THE CNS BY ULTRASOUND-BASED OPENING OF THE BLOOD-BRAIN BARRIER” (NORTHWESTERN UNIVERSITY, priority 2019, published 2022)",
  "origin": "cited, not measured here",
  "key": {"[1]": {"test_system": "orthotropic glioma xenograft model", "settings": "with valspodar, nude mice"}, "[2]": {"biological_target": "p-Glycoprotein (Homo sapiens, UniProt P08183)", "sequence (P08183 whole entry)": "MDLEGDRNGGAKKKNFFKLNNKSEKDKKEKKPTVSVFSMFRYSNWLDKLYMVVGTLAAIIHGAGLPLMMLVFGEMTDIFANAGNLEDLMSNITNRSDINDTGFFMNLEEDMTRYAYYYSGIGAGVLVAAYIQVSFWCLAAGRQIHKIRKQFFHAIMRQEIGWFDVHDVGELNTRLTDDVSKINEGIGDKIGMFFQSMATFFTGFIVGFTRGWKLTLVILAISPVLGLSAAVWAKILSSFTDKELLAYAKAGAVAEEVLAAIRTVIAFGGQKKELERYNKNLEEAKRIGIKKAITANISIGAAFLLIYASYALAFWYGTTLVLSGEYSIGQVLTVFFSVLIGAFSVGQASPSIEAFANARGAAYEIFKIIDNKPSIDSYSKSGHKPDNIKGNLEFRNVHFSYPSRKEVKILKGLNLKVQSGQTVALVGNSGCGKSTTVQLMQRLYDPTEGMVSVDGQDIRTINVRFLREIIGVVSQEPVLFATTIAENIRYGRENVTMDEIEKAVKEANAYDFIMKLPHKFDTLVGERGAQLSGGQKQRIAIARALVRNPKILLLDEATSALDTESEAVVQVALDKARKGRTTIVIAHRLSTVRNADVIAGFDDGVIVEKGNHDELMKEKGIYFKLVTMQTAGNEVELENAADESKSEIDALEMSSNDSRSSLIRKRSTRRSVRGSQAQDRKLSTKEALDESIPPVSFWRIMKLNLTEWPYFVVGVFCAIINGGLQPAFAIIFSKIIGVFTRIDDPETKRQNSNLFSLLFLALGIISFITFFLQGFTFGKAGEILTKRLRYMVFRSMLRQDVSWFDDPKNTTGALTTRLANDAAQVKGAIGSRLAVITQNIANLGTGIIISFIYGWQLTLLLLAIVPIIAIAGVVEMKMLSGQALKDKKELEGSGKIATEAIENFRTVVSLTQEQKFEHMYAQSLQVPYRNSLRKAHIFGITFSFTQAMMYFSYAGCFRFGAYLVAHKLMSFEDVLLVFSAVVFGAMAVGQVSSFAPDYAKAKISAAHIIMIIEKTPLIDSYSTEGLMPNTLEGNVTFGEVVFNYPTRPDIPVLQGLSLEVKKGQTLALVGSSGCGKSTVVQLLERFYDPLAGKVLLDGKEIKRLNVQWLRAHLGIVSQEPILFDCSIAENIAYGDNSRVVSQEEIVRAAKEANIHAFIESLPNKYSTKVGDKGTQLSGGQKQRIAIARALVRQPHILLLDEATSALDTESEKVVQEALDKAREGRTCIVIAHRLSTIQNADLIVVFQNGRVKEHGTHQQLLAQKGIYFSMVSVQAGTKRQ"}, "[3]": {"settings": "local convection-enhanced delivery"}},
  "data": [
    {"smiles": "CC(=O)O[C@H]1C(=O)[C@@]2(C)[C@H]([C@H](OC(=O)c3ccccc3)[C@]3(O)C[C@H](OC(=O)[C@H](O)[C@@H](NC(=O)c4ccccc4)c4ccccc4)C(C)=C1C3(C)C)[C@]1(OC(C)=O)CO[C@@H]1C[C@@H]2O", "note": "[PTX, paclitaxel]", "values": [
      {"measurement": "effectiveness when using p-Glycoprotein blocker valspodar", "setting": "[1]", "value": "significant increased effectiveness"},
      {"measurement": "substrate for the multidrug resistance protein p-Glycoprotein", "setting": "[2]", "value": "substrate"},
      {"measurement": "response rate", "setting": "[3]", "value": 73, "unit": "%"}
    ]}
  ]
}
